According to patent publication US11040052B2, “Methods and pharmaceutical compositions for modulating autophagy in a subject in need thereof” (INSERM (INSTITUT NATIONAL DE LA SANTE ET DE LA RECHERCHE …, priority 2013, dated 2021):
Entries after “also recorded” stand apart in the source; their conditions may differ.

What was measured:
[1] = test system: TAC-induced cardiac autophagy and remodeling; test: In vivo model of pressure overload (thoracic aortic constriction, TAC); parameters: species or system mice; details: daily intra-peritoneal 300 mg/kg
Description: Immuno-histochemical staining of heart tissue sections was performed using the Novolink Kit (Menarini Diagnostics, RE7140-K), as previously described (Ladoire et al., 2012). Briefly, […] formalin-fixed, paraffin-embedded tissue sections were deparaffinized with 3 successive passages through xylene, and rehydrated through decreasing concentrations (100%, 95%, 80%, 70% and 50%) of ethanol. Antigen retrieval was performed by heating slides for 30 min in pH 6.0 citrate buffer at 95° C. Slides were then allowed to cool at room temperature for 45 min, mounted on Shandon Sequenza coverplates (Thermo Fisher Scientific, 72-199-50) in distilled water, and then washed twice for 5 min with 0.1% Tween 20 (v/v in PBS). Thereafter, sections were incubated for 5 min with the Peroxidase Block reagent, and subsequently washed twice for 5 min with 0.1% Tween 20 (v/v in PBS). […] Two-dimensional echocardiography was performed prior to surgery and 1 week post-surgery in non-sedated mice to quantify functional parameters using a Vevo 2100 high-resolution imaging system (Visual Sonics). […] Quantitative analysis was obtained through measurement of an average of 900 cells in each section from two (sham) or three (TAC) animals.

KRas-induced lung cancer = KRas-induced lung cancer (AdCre inhalation); type: in vivo, mice
Description: Atg5fl/fl mice were kindly given by Dr Noboru Mizushima. LSL-K-rasG12D;Atg5fl/fl mice were obtained as described in^7. In all experiments, only littermate mice were used as controls. All mice were maintained according to the ethical animal licence protocol complying with the Austrian and European legislation. All experiments were approved by Bundesministerium for Wissenschaft and Forschung, Austria (BMWF-66.015/0013-II/3b/2012).
Inhalation of 6-8-week-old mice with AdCre viruses was performed as previously reported (REF). In brief, experimental animals were anaesthetized with 10% Ketasol/Xylasol and placed on a heated pad. An AdCre-CaCl2 precipitate was produced by mixing […], 2.5 ml AdCre (1010 p.f.u. ml_1; University of Iowa, Gene Transfer Vector Core Iowa, USA) and 0.6 ml CaCl2 (1 M) for each mouse and incubated for 20 min at room temperature. One week after AdCre inhalation, mice were administered with 900 mg/kg HC per body weight in drinking water for 5 weeks and tumors lesions were evaluated by immunohistochemistry.
For KRas-induced lung cancers hisology, […] sections from at least three different planes were cut and stained with haematoxylin and eosin. Sections were scanned using a Mirax slide scanner and lung/tumour areas were automatically scored by an algorithm programmed and executed using the Definiens software suite and visually analyzed in a double blinded fashion. Immunhistochemical staining was performed by automatic staining machine (Leica Bond3) or manually processed. Sections were dehydrated and antigenic epitopes were retrieved using a 10-mM citrate buffer and microwaving for 10 min. Specimen were then incubated with rabbit polyclonal anti-Foxp3 (eBioscience, 13-5773, :100), anti-CD3E (Santa Cruz, 101442, 1:100). Primary Ab staining was detected by peroxidase conjugated anti-rabbit IgG (DAKO, P0448, 1:500). Positive cells were counted on 20 randomly chosen tumour areas at _400 magnifications in a double blinded fashion. Quantitative analysis was performed using HistoQuest software (TissueGnostics GmbH, Vienna, Austria; http://www.tissuegnostics.com).

[2] = test system: MPA/DMBA induced mammary tumors; test: MPA/DMBA induced mammary tumor; type: in vivo, mice
Description: Six-week-old female Balb/c mice underwent surgical implantation of slow-release MPA (Medroxyprogesterone Acetate) pellets (50 mg, 90-day release; Innovative Research of America) subcutaneously on the right flank. 200 uL of 5 mg/mL DMBA (Dimethylbenzantracene)
(Sigma Aldrich) dissolved in Corn Oil was administered by oral gavage six times during 8 weeks. Tumor formation was monitored by palpation. When tumors became palpable, mice were assigned to following groups of treatment: PBS, HCA, MTX, MTX plus HCA and the MTX plus HCA upon CD4/CD8 lymphocytes depletion. Combinatorial groups were treated as previously described, whereas for CD4/CD8 depletion, mice were intraperitoneally administrated with 500 μg of anti CD4 and CD8 antibodies the day before the onset of the treatment.

SMILES	TAC-induced cardiac autophagy [1]	TAC-induced pathological remodeling / heart failure features [1]	autophagy (LC3 dots) in KRas induced lung adenocarcinomas (KRas-induced lung cancer; Atg5fl/+ tumors)	Foxp3+ regulatory T cells in tumor bed (KRas-induced lung cancer; KRas;Atg5fl/+ mice)	number and size of tumor lesions (KRas-induced lung cancer; KRas;Atg5fl/+ mice, 5 weeks in drinking water)	ratio between CD8+ and Foxp3+ lymphocytes (KRas-induced lung cancer; KRas;Atg5fl/+ tumors)	lung cancers in mice without adaptive immunity (KRas-induced lung cancer; Rag2−/− mice, data not shown)	survival, combined with MTX ([2]; Kaplan-Meier)	mammary tumor growth and survival, combined with MTX, T cell depleted ([2]; depletion of CD4 and CD8 T lymphocytes)	mammary tumor growth, combined with MTX ([2]; mice capable of T-cell dependent immune response)	mammary tumor growth, monotherapy ([2]; mouse, in vivo)
COC(=O)CCC(=O)C(=O)OC [DMKG, dimethyl-α-ketoglutarate]	decreased cardiac autophagy induced by thoracic aortic constriction (TAC); also recorded: inhibited the maladaptive accumulation of autophagosomes	suppressed TAC-induced pathological remodeling; also recorded: suppressed multiple features of TAC-induced heart failure	–	–	–	–	–	–	–	–	–
O=C(O)CC(O)(C(=O)O)C(O)C(=O)O (centres unmarked) [HC, hydroxycitrate]	–	–	induced autophagy in KRas induced lung adenocarcinomas	reduces CD3+ FOXP3 Regulatory T cells in tumor bed; also recorded: reduced the density of tumor infiltration by lymphocytes expressing the Treg marker Foxp3	reduces tumor size and lesions; also recorded: reduced the number and size of Ad-Cre-induced tumor lesions	improvement in the ratio between CD8^+ and Foxp3^+ lymphocytes	had no positive effect on lung cancers evolving in Rag2^−− mice	significantly increased survival	Beneficial effect of combinatorial treatment is lost	significantly diminish tumor growth; also recorded: unless they were combined	had little effect
